The test system of test [1] is Staphylococcus aureus ATCC29213. The test is described as follows: Minimum Inhibitory Concentration (MIC) testing, broth microdilution, Staphylococcus aureus. The test is classed as cell-based. The settings on record: Staphylococcus aureus ATCC29213; read-out: Staphylococcus aureus MICs Activity. On the procedure:
(§1) Compounds of this invention were tested for antimicrobial activity by susceptibility testing in liquid media. MICs for compounds against each strain were determined by a broth microdilution method according to the National Committee for Clinical Laboratory Standards (NCCLS) guidelines. (NCCLS. 2000. Methods for dilution antimicrobial susceptibility tests for bacteria that grow aerobically—fifth edition. Approved standard M7-A5. NCCLS, Wayne, Pa.)
(§2) Briefly, test compounds are prepared in 100 μl of 1.6% DMSO solution in multiwell plates. Several bacterial colonies from a freshly streaked plate are transferred to an appropriate rich broth, such as Mueller Hinton. The cell suspension is adjusted to an optical density of 0.09 and further diluted 1:100 with warm 2× broth. This cell suspension is dispensed into the wells containing compound solution so that the final volume is 200 μl. The plates are incubated overnight (16-20 hours) at 37° C. and turbidity is scored by eye and quantified spectrophotometrically. The MIC is defined as the lowest concentration inhibiting visible growth.
Some of the compounds of the Examples were also tested for activity against the pathogenic organism Staphylococcus aureus ATCC29213. […] Activities were again scored as ‘A’ if the MIC was ≦8 micrograms/ml, ‘B’ if the MIC was 16 to 64 micrograms/ml and ‘C’ if the MIC was greater than 64 micrograms/ml.
For orientation: In broth dilution the organism is exposed to a series of concentrations in liquid medium.

The subject of test [2] is Bacillus subtilis 168CA. Put plainly: Minimum Inhibitory Concentration (MIC) testing, broth microdilution, Bacillus subtilis. The test is classed as cell-based. The settings on record: Bacillus subtilis 168CA; read-out: Bacillus subtilis MICs Activity. As to the method:
as §1, §2
Activities were scored as ‘A’ if the MIC was ≦8 micrograms/ml, ‘B’ if the MIC was 16 to 64 micrograms/ml and ‘C’ if the MIC was greater than 64 micrograms/ml.

Converted amounts (≈) assume the structure as drawn.

Consider `COC(=O)CCCOc1cccc(C(N)=O)c1` [Example 26, Methyl 4-[3-(aminocarbonyl)phenoxy]butanoate], for which the MIC in test [1] and in test [2] was > 64 µg/mL in each case. In the case of `CCCCOC(=O)COc1ccc(F)c(C(N)=O)c1F` [Example 83, Butyl 2-[3-(aminocarbonyl)-2,4-difluorophenoxy]acetate], the MIC was 16 to 64 µg/mL (≈ 55.7 to 223 µM) in test [1] and < 8 µg/mL in test [2]. Consider `NC(=O)c1c(F)ccc(OCc2csc3ccccc23)c1F` [Example 202, 3-(1-Benzothiophen-3-ylmethoxy)-2,6-difluorobenzenecarboxamide], for which the MIC in test [1] was 16 to 64 µg/mL (≈ 50.1 to 200 µM); in test [2] it was < 8 µg/mL.

For the compound `NC(=O)c1c(F)ccc(OCc2nc(-c3cccc(O)c3)cs2)c1F` [Example 334, 2,6-Difluoro-3-[4-(3-hydroxy-phenyl)-thiazol-2-ylmethoxy]-benzamide], the MIC was < 8 µg/mL in test [1] and 16 to 64 µg/mL (≈ 44.2 to 177 µM) in test [2].

`COc1ccc(-c2nc(COc3ccc(F)c(C(N)=O)c3F)cs2)cc1` [Example 323, 2,6-Difluoro-3-[2-(4-methoxy-phenyl)-thiazol-4-ylmethoxy]-benzamide]: the MIC in test [1] and in test [2] was < 8 µg/mL throughout. Consider `C=CCCCCCCOc1cccc(C(N)=O)c1` [Example 12, 3-(7-Octenyloxy)benzenecarboxamide], for which the MIC in test [1] was < 8 µg/mL; in test [2], 16 to 64 µg/mL (≈ 64.7 to 259 µM). Take `NC(=O)c1c(F)ccc(OCc2nnc(C3CC3)s2)c1F` [Example 138, 3-(5-Cyclopropyl-[1,3,4]thiadiazol-2-ylmethoxy)-2,6-difluoro-benzamide]: the MIC in test [1] and in test [2] was > 64 µg/mL in each case.

On to `C/C=C/COc1cccc(C(N)=O)c1` [Example 30, 3-[2-Butenyloxy]benzenecarboxamide], for which the MIC in test [1] and in test [2] was > 64 µg/mL throughout.

With `COc1ccc(-c2nc(COc3ccc(F)c(C(N)=O)c3F)sc2-c2cccc(OC)c2)cc1` [Example 281, 2,6-Difluoro-3-[5-(3-methoxy-phenyl)-4-(4-methoxy-phenyl)-thiazol-2-ylmethoxy]-benzamide], the MIC in test [1] and in test [2] was < 8 µg/mL in each case. As for `CCCCCCOc1ccc(F)c(C(N)=O)c1F` [Example 81, 2,6-Difluoro-3-(hexyloxy)benzenecarboxamide], the MIC in test [1] and in test [2] was < 8 µg/mL throughout.

On to `NC(=O)c1c(F)ccc(OCc2nc(-c3ccccn3)cs2)c1F` [Example 115, 2,6-Difluoro-3-(4-pyridin-2-yl-thiazol-2-ylmethoxy)-benzamide], for which the MIC in test [1] is < 8 µg/mL; in test [2] it was 16 to 64 µg/mL (≈ 46.1 to 184 µM).

`CCCCCCCCCCOc1ccc(F)c(C(N)=O)c1` [Example 71, 2-Fluoro-5-(decyloxy)benzenecarboxamide]: the MIC in test [1] and in test [2] was < 8 µg/mL each time. Take `CCCCCC/C=C\COc1cccc(C(N)=O)c1` [Example 47, 3-[(Z)-2-Nonenyloxy]benzenecarboxamide]: the results for the MIC in test [1] and in test [2] were 16 to 64 µg/mL (≈ 61.2 to 245 µM) and < 8 µg/mL, respectively.

Turning to `COc1ccc(Br)c(-c2csc(COc3ccc(F)c(C(N)=O)c3F)n2)c1` [Example 100, 3-[4-(2-Bromo-5-methoxy-phenyl)-thiazol-2-ylmethoxy]-2,6-difluoro-benzamide], the MIC in test [1] and in test [2] was < 8 µg/mL throughout.

On to `NC(=O)c1c(F)ccc(OCc2nc(-c3ccc(Cl)cc3)cs2)c1Cl` [Example 274, 2-Chloro-3-[4-(4-chloro-phenyl)-thiazol-2-ylmethoxy]-6-fluoro-benzamide], for which the MIC in test [1] and in test [2] was < 8 µg/mL each time. As for `NC(=O)c1c(F)ccc(OCC2COc3ccccc3O2)c1F` (stereo not shown) [Example 204, 3-(2,3-Dihydro-1,4-benzodioxin-2-ylmethoxy)-2,6-difluorobenzenecarboxamide], the MIC in test [1] and in test [2] was 16 to 64 µg/mL (≈ 49.8 to 199 µM) throughout.

In the case of `COc1ccc(-c2nc(COc3ccc(F)c(C(N)=O)c3F)sc2-c2nccs2)cc1` [Example 155, 2,6-Difluoro-3-[4′-(4-methoxy-phenyl)-[2,5′]bithiazolyl-2′-ylmethoxy]-benzamide], the MIC in test [1] and in test [2] was < 8 µg/mL throughout. For `CC(=O)Oc1cccc(COc2cccc(C(N)=O)c2)c1` [Example 172, 3-[3-(Aminocarbonyl)phenoxy]methylphenyl acetate], the MIC in test [1] and in test [2] was > 64 µg/mL in each case. As for `CCCCCCCCCOc1ccc(Cl)c(C(N)=O)c1` [Example 68, 2-Chloro-5-(nonyloxy)benzenecarboxamide], the MIC in test [1] and in test [2] was < 8 µg/mL each time.

For `NC(=O)c1c(F)ccc(OCc2nnc(-c3cccs3)o2)c1F` [Example 152, 2,6-Difluoro-3-(5-thiophen-2-yl-[1,3,4]oxadiazol-2-ylmethoxy)-benzamide], the MIC in test [1] and in test [2] was 16 to 64 µg/mL (≈ 47.4 to 190 µM) throughout.

Turning to `NC(=O)c1c(Cl)ccc(OCc2nc(-c3ccc(Cl)cc3)no2)c1F` [Example 269, 6-Chloro-3-[3-(4-chloro-phenyl)-[1,2,4]oxadiazol-5-ylmethoxy]-2-fluoro-benzamide], the MIC in test [1] and in test [2] was < 8 µg/mL each time.

Take `COc1ccc2sc(COc3ccc(F)c(C(N)=O)c3F)nc2c1` [Example 119, 2,6-Difluoro-3-(5-methoxy-benzothiazol-2-ylmethoxy)-benzamide]: the MIC in test [1] and in test [2] was < 8 µg/mL each time. For the compound `Cc1cccc(COc2ccc(F)c(C(N)=O)c2F)c1F` [Example 128, 2,6-Difluoro-3-(2-fluoro-3-methyl-benzyloxy)-benzamide], the MIC in test [1] is 16 to 64 µg/mL (≈ 54.2 to 217 µM); in test [2], < 8 µg/mL. For the compound `Cc1cccc2ccc(COc3ccc(F)c(C(N)=O)c3F)nc12` [Example 146, 2,6-Difluoro-3-(8-methyl-quinolin-2-ylmethoxy)-benzamide], the MIC in test [1] is 16 to 64 µg/mL (≈ 48.7 to 195 µM); in test [2], < 8 µg/mL. In the same order, the values of `CCCCCCCCCCCOc1ccc(F)c(C(N)=O)c1` [Example 72, 2-Fluoro-5-(undecyloxy)benzenecarboxamide] are 16 to 64 µg/mL (≈ 51.7 to 207 µM) and 16 to 64 µg/mL (≈ 51.7 to 207 µM). On the same counts, the results for `NC(=O)c1cccc(OCC(=O)OC2CCCCC2)c1` [Example 27, Cyclohexyl 2-[3-(aminocarbonyl)phenoxy]acetate] are > 64 µg/mL and > 64 µg/mL. Turning to `NC(=O)c1c(F)ccc(OCc2nc(-c3ccc(F)cc3)no2)c1F` [Example 245, 2,6-Difluoro-3-[3-(4-fluorophenyl)-1,2,4-oxadiazol-5-yl]methoxybenzenecarboxamide], the MIC in test [1] and in test [2] was < 8 µg/mL each time. Consider `COc1cccc(-c2ccc3sc(COc4ccc(F)c(C(N)=O)c4F)nc3c2)c1` [Example 143, 2,6-Difluoro-3-[5-(3-methoxy-phenyl)-benzothiazol-2-ylmethoxy]-benzamide], for which the MIC was < 8 µg/mL in test [1] and > 64 µg/mL in test [2].

On to `NC(=O)c1c(F)ccc(OCc2nc3cc([N+](=O)[O-])ccc3s2)c1F` [Example 117, 2,6-Difluoro-3-(5-nitro-benzothiazol-2-ylmethoxy)-benzamide], for which the MIC in test [1] and in test [2] was < 8 µg/mL throughout. In the case of `NC(=O)c1c(F)ccc(OCc2nc(-c3ccccc3)no2)c1F` [Example 240, 2,6-Difluoro-3-[(3-phenyl-1,2,4-oxadiazol-5-yl)methoxy]benzenecarboxamide], the MIC in test [1] and in test [2] was < 8 µg/mL each time. For `CCCCCCCCOc1cccc(C(N)=O)c1` [Example 19, 3-(Octyloxy)benzenecarboxamide], the MIC in test [1] and in test [2] was < 8 µg/mL in each case. Take `NC(=O)c1c(F)ccc(OCc2nnc(-c3ccccc3)o2)c1F` [Example 238, 2,6-Difluoro-3-[(5-phenyl-1,3,4-oxadiazol-2-yl)methoxy]benzenecarboxamide]: in test [2], the MIC was in the range of 16 to 64 µg/mL (≈ 48.3 to 193 µM). On the same count and under the same terms, the same measure for `CCCCOc1cccc(C(N)=O)c1` [Example 7, 3-Butoxybenzenecarboxamide]: > 64 µg/mL.

Regarding `NC(=O)c1c(F)ccc(OCc2nnc(-c3ccc(Cl)cc3)s2)c1F` [Example 234, 3-[5-(4-Chlorophenyl)-1,3,4-thiadiazol-2-yl]methoxy-2,6-difluorobenzenecarboxamide], the MIC in test [2] is < 8 µg/mL.

For the compound `Cc1cccc(-c2ccc3sc(COc4ccc(F)c(C(N)=O)c4F)nc3c2)c1` [Example 142, 2,6-Difluoro-3-(5-m-tolyl-benzothiazol-2-ylmethoxy)-benzamide], the MIC in test [2] is < 8 µg/mL. The same measure, in the same setting: the same measure for `NC(=O)c1c(F)ccc(OCc2ccc3cccnc3c2)c1F` [Example 330, 2,6-Difluoro-3-(quinolin-7-ylmethoxy)-benzamide]: 16 to 64 µg/mL (≈ 50.9 to 204 µM).

On to `CC(C)CCCCOc1cccc(C(N)=O)c1` [Example 22, 3-[(5-Methylhexyl)oxy]benzenecarboxamide], for which, in test [2], the MIC lay in the range of 16 to 64 µg/mL (≈ 68 to 272 µM). On the same count and under the same terms, the result for `NC(=O)c1c(F)ccc(OCc2ccc3ccccc3c2)c1F` [Example 113, 2,6-Difluoro-3-(naphthalen-2-ylmethoxy)-benzamide] reads < 8 µg/mL; that for `NC(=O)c1cccc(OCCCCCc2ccccc2)c1` [Example 21, 3-[(5-Phenylpentyl)oxy]benzenecarboxamide], 16 to 64 µg/mL (≈ 56.5 to 226 µM).

Values taken from US8088791B2, “Antibacterial agents” (Biots Scientific Management Pty Ltd, priority 2006, dated 2012).
